Tests used:
[1] = Binding affinity to SARS-CoV-2 main protease E166 V mutant expressed in Escherichia coli assessed as dissociation constant using fluorogenic substrate incubated for 90 mins by fluorescence based analysis; set-up: species or system Severe acute respiratory syndrome coronavirus 2
[2] = Binding affinity to SARS-CoV-2 Omicron main protease P132H mutant expressed in Escherichia coli assessed as dissociation constant using fluorogenic substrate incubated for 90 mins by fluorescence based analysis; set-up: species or system Severe acute respiratory syndrome coronavirus 2

Structure (SMILES) | Ki [1] [nM] | Ki [2] [nM]
CC(C)(C)[C@H](NC(=O)C(F)(F)F)C(=O)N1C[C@H]2[C@@H]([C@H]1C(=O)N[C@H](C#N)C[C@@H]1CCNC1=O)C2(C)C | > 5000 | 1
CN1C(=O)C[C@H]2CC3(CC3)CN2C(=O)c2cncc(c2)NCCCCCCNC(=O)[C@H]1Cc1ccc(Cl)cc1Cl | 12 | < 1
CN1C(=O)C[C@H]2CC3(CC3)CN2C(=O)c2cncc(c2)NCCC/C=C/CNC(=O)[C@H]1Cc1ccc(Cl)cc1Cl | 11 | < 1
CNC[C@@H](Cc1ccc(Cl)cc1)N(C)C(=O)C[C@H]1CCCN1C(=O)c1cncc2ccccc12 | 1200 | 35

— ChEMBL document CHEMBL6092207 (J Med Chem, 2024)
